According to the NIST ThermoML archive (doi:10.1016/j.tca.2017.09.002):
± gives the expanded uncertainty stated by the source.

Experiment: excess molar enthalpy (molar enthalpy of mixing); xn = mol fraction of the nth substance listed
Details: 1273 K, 105 kPa, Liquid, Calvet calorimetry

[Ni] [nickel] + [Bi]
excess molar enthalpy (x1 = 0.0552): -0.0846 ± 0.0143 kcal/mol | excess molar enthalpy (x1 = 0.1056): -0.165 ± 0.0143 kcal/mol | excess molar enthalpy (x1 = 0.1516): -0.227 ± 0.0191 kcal/mol | excess molar enthalpy (x1 = 0.1935): -0.272 ± 0.0191 kcal/mol | excess molar enthalpy (x1 = 0.2321): -0.301 ± 0.0239 kcal/mol | excess molar enthalpy (x1 = 0.2677): -0.321 ± 0.0239 kcal/mol | excess molar enthalpy (x1 = 0.3011): -0.329 ± 0.0239 kcal/mol | excess molar enthalpy (x1 = 0.3319): -0.325 ± 0.0239 kcal/mol
